The values that follow come from article PMC9851200, “Multiparameter phenotypic screening for endogenous TFEB and TFE3 translocation identifies novel chemical series modulating lysosome function” (Autophagy, 2022).

Holding throughout (assay type): binding
For test [1], the target named is kinases (KINOMEscan panel) (Homo sapiens, UniProt O75914). The conditions noted are these: NEW KINOMEscan.
In test [2] the target is kinases (KINOMEscan panel) (Homo sapiens, UniProt P00519, F317I). The conditions noted are these: NEW KINOMEscan; for KINOMEscan ABL1(F317I)-phosphorylated: kinase ABL1(F317I)-phosphorylated.
Sequence of kinases (KINOMEscan panel) (Homo sapiens, UniProt P00519, F317I) (P00519 whole entry F317I): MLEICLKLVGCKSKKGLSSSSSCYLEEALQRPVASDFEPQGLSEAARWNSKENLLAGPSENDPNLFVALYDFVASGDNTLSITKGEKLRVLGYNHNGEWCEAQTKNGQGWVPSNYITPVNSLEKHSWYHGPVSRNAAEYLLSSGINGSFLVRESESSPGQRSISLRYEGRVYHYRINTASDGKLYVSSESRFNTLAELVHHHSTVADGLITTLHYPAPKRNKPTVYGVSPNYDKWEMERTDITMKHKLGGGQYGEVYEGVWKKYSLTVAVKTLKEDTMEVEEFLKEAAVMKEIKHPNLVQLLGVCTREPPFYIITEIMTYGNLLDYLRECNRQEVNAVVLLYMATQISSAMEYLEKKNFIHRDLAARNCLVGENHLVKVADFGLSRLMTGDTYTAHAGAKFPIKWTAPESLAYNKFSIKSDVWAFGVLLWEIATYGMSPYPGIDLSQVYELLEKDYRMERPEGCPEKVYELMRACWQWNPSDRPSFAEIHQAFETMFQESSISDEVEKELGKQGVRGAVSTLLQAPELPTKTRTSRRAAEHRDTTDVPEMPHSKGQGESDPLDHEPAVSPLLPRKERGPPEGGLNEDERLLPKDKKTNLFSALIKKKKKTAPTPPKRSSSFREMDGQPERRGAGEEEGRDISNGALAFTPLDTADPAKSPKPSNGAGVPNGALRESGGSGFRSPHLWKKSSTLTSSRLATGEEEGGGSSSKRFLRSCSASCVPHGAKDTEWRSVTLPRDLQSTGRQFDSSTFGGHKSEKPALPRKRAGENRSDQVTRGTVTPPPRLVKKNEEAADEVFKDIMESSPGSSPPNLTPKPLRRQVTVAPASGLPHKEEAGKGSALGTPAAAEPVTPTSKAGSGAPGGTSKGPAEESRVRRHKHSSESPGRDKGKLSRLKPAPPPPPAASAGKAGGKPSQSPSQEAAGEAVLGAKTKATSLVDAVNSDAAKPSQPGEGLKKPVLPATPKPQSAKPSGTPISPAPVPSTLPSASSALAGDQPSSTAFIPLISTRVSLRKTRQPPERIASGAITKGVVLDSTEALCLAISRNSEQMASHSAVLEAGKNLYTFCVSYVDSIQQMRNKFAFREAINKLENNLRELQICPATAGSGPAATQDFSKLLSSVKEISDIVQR
Test [3] has as its target kinases (KINOMEscan panel) (Homo sapiens, UniProt P07949, M918T). The conditions noted are these: NEW KINOMEscan.
The target in test [4] is kinases (KINOMEscan panel) (Homo sapiens, UniProt P12931). The conditions noted are these: SRC; NEW KINOMEscan.
Sequence of kinases (KINOMEscan panel) (Homo sapiens, UniProt P12931) (P12931 whole entry): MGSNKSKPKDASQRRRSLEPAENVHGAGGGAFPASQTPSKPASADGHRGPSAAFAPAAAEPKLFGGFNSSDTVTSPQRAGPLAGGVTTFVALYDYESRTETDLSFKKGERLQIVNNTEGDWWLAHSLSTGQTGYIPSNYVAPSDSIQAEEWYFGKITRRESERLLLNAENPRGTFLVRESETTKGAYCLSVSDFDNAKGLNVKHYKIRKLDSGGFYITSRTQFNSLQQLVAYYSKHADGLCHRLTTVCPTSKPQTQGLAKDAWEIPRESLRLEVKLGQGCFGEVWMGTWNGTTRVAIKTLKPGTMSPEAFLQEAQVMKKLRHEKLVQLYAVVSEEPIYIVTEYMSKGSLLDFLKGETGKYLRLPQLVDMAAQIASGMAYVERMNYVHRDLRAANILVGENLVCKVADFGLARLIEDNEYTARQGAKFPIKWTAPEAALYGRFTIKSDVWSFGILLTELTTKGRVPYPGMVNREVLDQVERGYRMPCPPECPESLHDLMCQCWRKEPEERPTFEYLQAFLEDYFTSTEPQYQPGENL
For test [5], the target named is kinases (KINOMEscan panel) (Homo sapiens, UniProt P42338). The conditions noted are these: PIK3CB; NEW KINOMEscan.
Sequence of kinases (KINOMEscan panel) (Homo sapiens, UniProt P42338) (P42338 whole entry): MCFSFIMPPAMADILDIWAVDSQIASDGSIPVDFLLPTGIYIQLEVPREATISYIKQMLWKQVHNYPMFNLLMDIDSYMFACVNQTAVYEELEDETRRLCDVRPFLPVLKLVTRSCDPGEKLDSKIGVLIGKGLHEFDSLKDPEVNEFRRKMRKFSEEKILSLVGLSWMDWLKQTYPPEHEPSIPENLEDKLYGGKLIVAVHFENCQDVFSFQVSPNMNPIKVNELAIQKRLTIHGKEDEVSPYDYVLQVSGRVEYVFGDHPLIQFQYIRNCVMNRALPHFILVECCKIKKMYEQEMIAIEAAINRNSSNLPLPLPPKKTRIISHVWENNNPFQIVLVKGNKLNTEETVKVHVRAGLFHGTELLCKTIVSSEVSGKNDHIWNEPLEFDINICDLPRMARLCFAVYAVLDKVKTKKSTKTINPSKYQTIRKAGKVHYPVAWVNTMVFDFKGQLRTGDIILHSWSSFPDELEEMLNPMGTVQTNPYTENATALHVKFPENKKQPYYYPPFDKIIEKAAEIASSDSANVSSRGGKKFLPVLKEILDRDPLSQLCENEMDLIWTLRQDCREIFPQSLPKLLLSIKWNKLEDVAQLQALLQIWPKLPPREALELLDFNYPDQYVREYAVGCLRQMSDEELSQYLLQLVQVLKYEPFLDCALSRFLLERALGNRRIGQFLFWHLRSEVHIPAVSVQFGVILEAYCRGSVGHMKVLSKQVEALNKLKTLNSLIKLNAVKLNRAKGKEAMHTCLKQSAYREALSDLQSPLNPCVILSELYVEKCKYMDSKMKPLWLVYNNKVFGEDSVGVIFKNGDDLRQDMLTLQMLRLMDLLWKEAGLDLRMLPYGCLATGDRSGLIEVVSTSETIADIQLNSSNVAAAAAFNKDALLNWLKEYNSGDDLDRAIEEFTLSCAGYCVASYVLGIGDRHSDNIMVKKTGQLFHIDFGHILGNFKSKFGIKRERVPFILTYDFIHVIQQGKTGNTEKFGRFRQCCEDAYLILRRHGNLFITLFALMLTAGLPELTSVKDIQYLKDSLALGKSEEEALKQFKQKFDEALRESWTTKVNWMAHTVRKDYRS
Test [6] has as its target kinases (KINOMEscan panel) (Homo sapiens, UniProt Q00536). Particulars: kinase CDK16; NEW KINOMEscan.
The target of test [7] is T1, kinases (KINOMEscan panel) (Homo sapiens, UniProt Q16832).
T1 sequence (Q16832 22-855): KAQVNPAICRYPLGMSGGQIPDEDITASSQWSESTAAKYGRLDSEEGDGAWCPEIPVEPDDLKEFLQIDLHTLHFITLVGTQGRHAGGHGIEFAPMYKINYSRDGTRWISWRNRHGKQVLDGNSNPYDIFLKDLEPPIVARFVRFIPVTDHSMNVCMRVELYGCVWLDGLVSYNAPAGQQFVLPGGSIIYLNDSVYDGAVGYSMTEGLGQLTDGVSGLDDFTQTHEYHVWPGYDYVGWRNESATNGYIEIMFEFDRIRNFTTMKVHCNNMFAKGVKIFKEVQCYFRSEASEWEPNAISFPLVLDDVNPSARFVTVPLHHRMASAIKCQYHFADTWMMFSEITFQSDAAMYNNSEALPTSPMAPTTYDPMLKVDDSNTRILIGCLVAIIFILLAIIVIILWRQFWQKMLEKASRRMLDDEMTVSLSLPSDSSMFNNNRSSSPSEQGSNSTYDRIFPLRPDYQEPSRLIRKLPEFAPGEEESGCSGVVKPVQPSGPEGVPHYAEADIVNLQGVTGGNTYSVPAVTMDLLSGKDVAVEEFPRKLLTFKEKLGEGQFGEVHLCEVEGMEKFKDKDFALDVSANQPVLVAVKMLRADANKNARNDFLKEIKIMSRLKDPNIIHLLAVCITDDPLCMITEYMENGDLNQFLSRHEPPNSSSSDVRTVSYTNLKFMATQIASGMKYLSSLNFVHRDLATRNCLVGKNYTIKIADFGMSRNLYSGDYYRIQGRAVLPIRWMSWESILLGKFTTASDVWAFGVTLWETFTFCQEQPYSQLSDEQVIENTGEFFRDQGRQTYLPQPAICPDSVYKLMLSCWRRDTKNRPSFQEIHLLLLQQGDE
Particulars: DDR2; NEW KINOMEscan.

Test [8] addresses T2, kinases (KINOMEscan panel) (Homo sapiens, UniProt Q8N752).
T2 sequence (Q8N752 1-337): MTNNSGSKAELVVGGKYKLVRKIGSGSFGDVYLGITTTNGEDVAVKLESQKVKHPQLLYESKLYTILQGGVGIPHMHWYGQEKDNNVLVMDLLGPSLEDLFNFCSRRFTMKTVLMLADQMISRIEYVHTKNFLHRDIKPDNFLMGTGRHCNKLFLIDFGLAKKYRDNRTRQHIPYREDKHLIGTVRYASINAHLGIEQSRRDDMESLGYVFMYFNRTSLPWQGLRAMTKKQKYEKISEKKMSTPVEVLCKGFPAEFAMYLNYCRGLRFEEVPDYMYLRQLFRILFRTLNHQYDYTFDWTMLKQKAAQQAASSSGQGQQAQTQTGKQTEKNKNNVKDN
The conditions noted are these: CSNK1A1L; NEW KINOMEscan.

For test [9], the target named is T3, kinases (KINOMEscan panel) (Homo sapiens, UniProt Q9NWZ3).
T3 sequence (Q9NWZ3 1-460): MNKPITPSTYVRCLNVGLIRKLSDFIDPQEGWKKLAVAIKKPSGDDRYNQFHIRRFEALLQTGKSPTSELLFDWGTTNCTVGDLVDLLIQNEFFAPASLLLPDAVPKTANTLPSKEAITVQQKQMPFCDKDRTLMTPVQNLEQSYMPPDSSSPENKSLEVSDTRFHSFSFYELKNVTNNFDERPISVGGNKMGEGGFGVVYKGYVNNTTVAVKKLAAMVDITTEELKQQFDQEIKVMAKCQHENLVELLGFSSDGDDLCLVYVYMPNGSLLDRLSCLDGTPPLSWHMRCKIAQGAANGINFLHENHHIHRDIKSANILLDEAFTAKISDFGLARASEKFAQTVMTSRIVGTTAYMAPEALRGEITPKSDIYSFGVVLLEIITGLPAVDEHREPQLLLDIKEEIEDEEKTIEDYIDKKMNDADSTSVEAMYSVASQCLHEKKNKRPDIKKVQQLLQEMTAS
The conditions noted are these: IRAK4; NEW KINOMEscan.

Test [10] deals with T4, kinases (KINOMEscan panel) (Homo sapiens, UniProt Q9UQB9).
T4 sequence (Q9UQB9 1-309): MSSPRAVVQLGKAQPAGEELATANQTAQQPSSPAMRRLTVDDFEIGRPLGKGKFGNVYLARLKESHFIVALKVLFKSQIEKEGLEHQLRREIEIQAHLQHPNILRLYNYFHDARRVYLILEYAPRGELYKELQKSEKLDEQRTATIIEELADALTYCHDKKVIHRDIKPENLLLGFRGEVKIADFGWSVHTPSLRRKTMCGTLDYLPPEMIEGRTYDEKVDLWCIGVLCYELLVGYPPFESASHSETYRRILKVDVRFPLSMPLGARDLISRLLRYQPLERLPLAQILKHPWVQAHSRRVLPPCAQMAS
The conditions noted are these: AURKC; NEW KINOMEscan.

Sequence of kinases (KINOMEscan panel) (Homo sapiens, UniProt Q00536) (Q00536 whole entry): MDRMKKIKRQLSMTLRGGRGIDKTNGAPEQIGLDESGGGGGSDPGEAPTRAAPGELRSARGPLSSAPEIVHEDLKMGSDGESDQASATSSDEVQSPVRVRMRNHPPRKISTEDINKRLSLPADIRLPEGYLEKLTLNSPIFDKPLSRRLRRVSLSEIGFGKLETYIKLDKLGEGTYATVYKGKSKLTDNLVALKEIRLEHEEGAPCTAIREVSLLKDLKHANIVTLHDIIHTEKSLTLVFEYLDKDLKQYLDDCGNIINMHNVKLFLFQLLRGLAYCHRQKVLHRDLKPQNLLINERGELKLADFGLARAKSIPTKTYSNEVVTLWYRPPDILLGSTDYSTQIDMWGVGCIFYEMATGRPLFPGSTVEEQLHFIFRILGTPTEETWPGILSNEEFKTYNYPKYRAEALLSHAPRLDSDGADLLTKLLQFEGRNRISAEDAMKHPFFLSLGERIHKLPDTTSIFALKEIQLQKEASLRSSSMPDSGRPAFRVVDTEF
Sequence of kinases (KINOMEscan panel) (Homo sapiens, UniProt P07949, M918T) (P07949 29-1114 M918T): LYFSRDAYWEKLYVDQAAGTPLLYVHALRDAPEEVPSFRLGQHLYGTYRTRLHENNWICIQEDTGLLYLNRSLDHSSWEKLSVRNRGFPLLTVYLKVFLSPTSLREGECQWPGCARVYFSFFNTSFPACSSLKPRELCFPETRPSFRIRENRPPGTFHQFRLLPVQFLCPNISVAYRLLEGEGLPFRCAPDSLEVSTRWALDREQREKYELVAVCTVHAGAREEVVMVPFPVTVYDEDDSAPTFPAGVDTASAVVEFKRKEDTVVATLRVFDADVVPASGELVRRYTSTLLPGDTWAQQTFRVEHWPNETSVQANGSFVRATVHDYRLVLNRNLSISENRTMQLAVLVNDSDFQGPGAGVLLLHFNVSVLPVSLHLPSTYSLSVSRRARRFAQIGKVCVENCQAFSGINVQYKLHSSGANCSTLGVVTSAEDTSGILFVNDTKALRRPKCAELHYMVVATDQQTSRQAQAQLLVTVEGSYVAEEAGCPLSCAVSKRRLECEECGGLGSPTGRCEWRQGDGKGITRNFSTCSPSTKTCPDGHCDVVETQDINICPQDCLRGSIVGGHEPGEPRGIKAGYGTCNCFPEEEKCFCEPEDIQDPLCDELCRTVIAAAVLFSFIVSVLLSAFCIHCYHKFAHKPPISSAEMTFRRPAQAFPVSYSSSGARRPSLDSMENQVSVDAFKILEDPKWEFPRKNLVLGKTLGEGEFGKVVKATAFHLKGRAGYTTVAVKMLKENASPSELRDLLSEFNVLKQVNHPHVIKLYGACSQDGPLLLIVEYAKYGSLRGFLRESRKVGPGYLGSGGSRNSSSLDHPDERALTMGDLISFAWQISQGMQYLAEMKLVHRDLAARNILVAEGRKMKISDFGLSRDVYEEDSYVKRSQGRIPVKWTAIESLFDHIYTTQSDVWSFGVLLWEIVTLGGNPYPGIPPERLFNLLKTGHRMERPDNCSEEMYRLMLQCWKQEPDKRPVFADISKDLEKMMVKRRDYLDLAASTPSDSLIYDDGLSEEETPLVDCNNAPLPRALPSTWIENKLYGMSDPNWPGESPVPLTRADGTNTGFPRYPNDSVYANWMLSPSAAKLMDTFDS
Sequence of kinases (KINOMEscan panel) (Homo sapiens, UniProt O75914) (O75914 whole entry): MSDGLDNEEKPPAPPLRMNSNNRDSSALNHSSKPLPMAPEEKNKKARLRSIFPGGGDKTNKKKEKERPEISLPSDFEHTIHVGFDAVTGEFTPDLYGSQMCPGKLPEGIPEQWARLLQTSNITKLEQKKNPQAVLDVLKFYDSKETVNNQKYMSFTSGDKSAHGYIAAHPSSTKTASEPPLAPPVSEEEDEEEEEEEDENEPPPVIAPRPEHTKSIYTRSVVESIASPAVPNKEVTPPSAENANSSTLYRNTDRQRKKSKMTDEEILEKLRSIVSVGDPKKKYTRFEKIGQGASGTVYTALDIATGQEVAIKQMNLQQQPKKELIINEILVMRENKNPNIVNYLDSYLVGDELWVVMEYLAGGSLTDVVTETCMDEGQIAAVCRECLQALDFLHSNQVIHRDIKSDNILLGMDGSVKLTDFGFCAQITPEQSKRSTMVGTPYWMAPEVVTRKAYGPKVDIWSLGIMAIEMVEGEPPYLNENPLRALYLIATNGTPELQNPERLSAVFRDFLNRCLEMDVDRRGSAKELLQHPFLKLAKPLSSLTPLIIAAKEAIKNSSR

Take `Cc1cccc(-c2nc(N(C)c3ccc4ncsc4c3)c3ccccc3n2)n1` [NK-161]: the “KINOMEscan PAK3” value in test [1] is on record as 17. In test [2], the “KINOMEscan ABL1(F317I)-nonphosphorylated” value is on record as 9 and the “KINOMEscan ABL1(F317I)-phosphorylated” value came out at 0. Also, in test [3], the “KINOMEscan RET(M918T)” value is listed as 15. For the same molecule, the “KINOMEscan SRC” value in test [4] came to 18. In addition, in [5], the “KINOMEscan PIK3CB” value is given as 0. In [6], the “KINOMEscan CDK16” value worked out at 0. Also, in test [7], the “KINOMEscan DDR2” value turned out to be 1. In addition, the “KINOMEscan CSNK1A1L” value in test [8] was 12. Besides, in test [9], the “KINOMEscan IRAK4” value is 0. The “KINOMEscan AURKC” value in [10] is on record as 0.
Turning to `Cc1cccc(-c2nc(Nc3ccc4nn(C)cc4c3)c3ccccc3n2)n1` [NK167], the “KINOMEscan PAK3” value in test [1] was 12. In test [2], the “KINOMEscan ABL1(F317I)-nonphosphorylated” value is 0 and the “KINOMEscan ABL1(F317I)-phosphorylated” value is given as 0. Moreover, in test [3], the “KINOMEscan RET(M918T)” value is recorded as 0. Besides, in [4], the “KINOMEscan SRC” value is listed as 13. The “KINOMEscan PIK3CB” value in test [5] was 0. The “KINOMEscan CDK16” value in test [6] is 0. For the same molecule, the “KINOMEscan DDR2” value in test [7] is listed as 2. Also, the “KINOMEscan CSNK1A1L” value in test [8] came out at 0. In [9], the “KINOMEscan IRAK4” value is reported as 0. Further, the “KINOMEscan AURKC” value in [10] amounted to 0.
